PubChem BioAssay (NCI)
Several values for one entry are separate records, joined by “and”; a condition that tells them apart may be missing. Identical values can stand only once.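 Exposure lasted 48 hours, with cells grown in 96-well plates and compounds tested at five concentrations. GI50: concentration for 50% inhibition of growth. TGI: total growth inhibition.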

What was measured:
Test in all cases: DTP human tumour cell line panel, 48 h
A498 renal = system: A498 renal
HCC-2998 colon = system: HCC-2998 colon
HL-60(TB) leukemia = system: HL-60(TB) leukemia
HS 578T breast = system: HS 578T breast
IGROV1 ovarian = system: IGROV1 ovarian
RPMI-8226 leukemia = system: RPMI-8226 leukemia
SF-268 CNS = system: SF-268 CNS
SF-295 CNS = system: SF-295 CNS
TK-10 renal = system: TK-10 renal
U251 CNS = system: U251 CNS

Compound	GI50 (A498 renal) [µM]	TGI (A498 renal)	GI50 (HCC-2998 colon) [µM]	TGI (HCC-2998 colon)	GI50 (HL-60(TB) leukemia) [µM]	TGI (HL-60(TB) leukemia) [µM]	GI50 (HS 578T breast) [µM]	TGI (HS 578T breast) [µM]	GI50 (IGROV1 ovarian) [µM]	TGI (IGROV1 ovarian) [µM]	GI50 (RPMI-8226 leukemia) [µM]	TGI (RPMI-8226 leukemia) [µM]	GI50 (SF-268 CNS) [µM]	TGI (SF-268 CNS)	GI50 (SF-295 CNS) [µM]	TGI (SF-295 CNS)	GI50 (TK-10 renal) [µM]	TGI (TK-10 renal) [µM]	GI50 (U251 CNS) [µM]	TGI (U251 CNS) [µM]
CC(=O)OC1CC2(O)C(CCC3(C)C(c4ccc(=O)oc4)CCC32O)C2(C)CCC(OC3OC(CO)C(O)C(O)C3O)C=C12 (configuration not stated)	0.0339	0.287 µM	0.0735	0.419 µM	0.0232	0.0579	0.0103	0.701	0.0318	0.272	0.0309	0.162	0.0112	0.04 µM	0.0302	0.168 µM	0.0226	0.201	0.0348	0.136
Clc1ccc(N/N=C(\c2ccccc2)c2ccccn2)nc1	0.133	16.4 µM and > 100 µM	0.341	> 48.4 µM and 21.1 µM	0.0868	–	0.781	–	0.139	–	0.128	> 52.6	0.324	21.1 µM and 4.08 µM	0.506	> 53.6 µM and 17.7 µM	0.338	> 100	0.344	> 68
O=C1Nc2ccc(CN3CCOC3=O)cc2/C1=C/c1cc(CN2CCOCC2)c[nH]1	> 45.2	> 100 µM	61	> 100 µM	25.1	> 80.7	> 69.8	> 100	50.6	> 100	19.2	53.7	> 86.5	> 100 µM	2.16	> 100 µM	65.5	> 100	> 75.6	> 100
O=C(c1ccccc1)c1ccc(O)c2ncccc12	9.29	27.4 µM	16.7	41.1 µM	2.09	8.82	5.08	72	2.4	11.9	4.25	39.1	3.11	> 100 µM	3.78	> 100 µM	6.99	> 100	5.93	26.2
N#CSCC1CC(O)(c2ccccc2)CC(c2ccc(Cl)cc2)O1 (configuration not stated)	1.88	8.63 µM	8.56	21.5 µM	2.52	5.3	3.24	13.2	2.75	7.72	1.26	5.39	1.8	3.29 µM	3.28	12.7 µM	2.13	4.33	2.64	9.03
CN(N=O)C(=O)Nc1ccc(C(=O)O)cc1	–	> 100 µM	–	> 100 µM	–	> 100	–	> 100	–	> 100	–	> 100	–	> 100 µM	–	> 100 µM	–	> 100	–	> 100
C/C(=C1/N=C(c2ccccc2)OC1=O)c1ccccc1	–	> 100 µM	–	> 100 µM	–	> 100	–	> 100	–	> 100	–	68.4	–	> 100 µM	–	> 100 µM	–	> 100	–	> 100
COc1ccc2c(c1)C(=O)c1c-2n(CCCN=[N+]=[N-])c(=O)c2cc(N)ccc12	> 100	> 100 µM	> 100	> 100 µM	> 100	> 100	> 100	> 100	> 100	> 100	> 100	> 100	> 100	> 100 µM	> 100	> 100 µM	> 100	> 100	> 100	> 100
O=C(O)c1cc2cc(O)ccc2[nH]1	> 100	> 100 µM	> 100	> 100 µM	> 100	> 100	> 100	> 100	> 100	> 100	> 100	> 100	> 100	> 100 µM	> 100	> 100 µM	> 100	> 100	> 100	> 100
COc1ccc(C2SCC(=O)N2NC(=O)C(O)c2ccccc2)cc1 (configuration not stated)	> 100	> 100 µM	> 100	> 100 µM	> 100	> 100	> 100	> 100	> 100	> 100	61.3	> 100	> 100	> 100 µM	> 100	> 100 µM	> 100	> 100	> 100	> 100
O=C(Nc1cc(C(F)(F)F)cc(C(F)(F)F)c1)Nc1ccc(OCc2nnc(-c3ccc(Cl)cc3)o2)c(F)c1	1.91	6.5 µM	3.12	12 µM	2.85	8.21	2.38	12.1	3.75	39.2	1.02	5.3	4.08	21 µM	1.14	6.91 µM	4.39	33.9	1.49	3.24
C=C1[C@@H](O)C[C@H]2C(C)(C)C[C@H](Cl)C[C@]2(C)[C@H]1C[C@H](O)[C@H]1CC(=O)NC1=O	0.0207	0.0723 µM	0.0173	0.117 µM	< 0.0107	0.0547	0.0192	0.274	0.0114	0.0853	0.0207	0.0805	0.0179	0.526 µM	< 0.0123	0.0748 µM	0.0253	0.151	< 0.01	0.108
C[C@@H]1CC[C@@H]2[C@@H]1[C@H](OC(=O)c1ccc3ccccc3c1)[C@]1(C3CCCCC3)C[C@@H](OC(=O)CO)[C@@]2(C)O1	0.0191	0.0679 µM	11.8	28.1 µM	9.23	30.6	0.023	0.0757	15.6	32.8	5.03	22.8	0.542	19.5 µM	11.6	25.3 µM	14.5	31.1	10.9	23
CCOc1ccc(NC(=O)c2cc3ccccc3cc2O)cc1	86.4	> 100 µM	> 100	> 100 µM	22.3	> 100	59.8	> 100	74	> 100	38.9	> 100	64.8	> 100 µM	34.6	> 100 µM	74.8	> 100	45.9	> 100
c1ccc2c(-c3cnn4cc(-c5ccc(N6CCNCC6)cc5)cnc34)ccnc2c1	1.43	2.87 µM	1.36	2.74 µM	0.461	0.969	1.25	2.93	0.801	2.23	0.327	0.931	1.43	2.8 µM	1.13	2.48 µM	1.76	3.2	0.278	1.08
CC(=O)Oc1ccccc1C(=O)NCCC[Se]C#N	2.1	4.08 µM	3.54	14.9 µM	2.09	5.49	2.12	6.8	2.24	11.2	2.41	6.04	1.84	4.06 µM	1.89	3.67 µM	1.83	3.82	1.6	2.95
CCCC(CCC)Oc1ccc(CCCC2=C(O)c3ccccc3C(=O)C2=O)cc1	7.21	20.1 µM	2.8	10.1 µM	2.68	6.27	11.7	37.4	4.93	18.5	2.9	7.49	5.22	18.9 µM	2.1	10.4 µM	8.03	21.3	5.37	17.5
Cc1cc(S(=O)(=O)Nc2nc3ccccc3[nH]2)c(SCc2ccccc2)cc1Cl	> 100	> 100 µM	21.4	> 100 µM	> 100	> 100	78.1	> 100	82	> 100	28.9	> 100	> 100	> 100 µM	21.3	> 100 µM	38	> 100	14.9	50.7
CC(C)C[C@H]1C(=O)N2CCC[C@H]2[C@]2(O)O[C@](NC(=O)[C@@H]3C=C4c5cccc6[nH]c(Br)c(c56)C[C@H]4N(C)C3)(C(C)C)C(=O)N12	–	> 100 µM	–	> 100 µM	–	28.1	–	> 100	–	> 100	–	> 100	–	> 100 µM	–	> 100 µM	–	> 100	–	> 100
